Measured values from patent US10954216B2, “BMP-signal-inhibiting compound” (RIKEN, priority 2016, dated 2021).

Experiments:
[1] = target: human ALK2 (Homo sapiens (Human), UniProt Q04771); test: ALK2 enzyme inhibitory effect (33P-ATP kinase assay, Reaction Biology); format: biochemical; conditions: ALK2, 10 μM ATP, 20 μM casein
Excerpt: (§1) ALK Enzyme Inhibitory Effect
(§2) Evaluation conditions were described in the following web pages. http://www.reactionbiology.corrilwebapps/site/Kinase_Assay_Protocol.aspx http://www.reactionbiology.corrilwebapps/site/KinaseDetail.aspx?page=Kinases&id=1

[2] = target: human ALK6 (Homo sapiens (Human), UniProt O00238); test: ALK6 enzyme inhibitory effect (33P-ATP kinase assay, Reaction Biology); format: biochemical; conditions: for inhibition at 0.3 µM: ALK6, test compound 300 nM, read-out: Inhibition rate at 300 nM; for inhibition at 0.37 µM: ALK6, test compound 370 nM (asterisk footnote), read-out: inhibition rate at 370 nM
Sequence of human ALK6 (O00238 14-502): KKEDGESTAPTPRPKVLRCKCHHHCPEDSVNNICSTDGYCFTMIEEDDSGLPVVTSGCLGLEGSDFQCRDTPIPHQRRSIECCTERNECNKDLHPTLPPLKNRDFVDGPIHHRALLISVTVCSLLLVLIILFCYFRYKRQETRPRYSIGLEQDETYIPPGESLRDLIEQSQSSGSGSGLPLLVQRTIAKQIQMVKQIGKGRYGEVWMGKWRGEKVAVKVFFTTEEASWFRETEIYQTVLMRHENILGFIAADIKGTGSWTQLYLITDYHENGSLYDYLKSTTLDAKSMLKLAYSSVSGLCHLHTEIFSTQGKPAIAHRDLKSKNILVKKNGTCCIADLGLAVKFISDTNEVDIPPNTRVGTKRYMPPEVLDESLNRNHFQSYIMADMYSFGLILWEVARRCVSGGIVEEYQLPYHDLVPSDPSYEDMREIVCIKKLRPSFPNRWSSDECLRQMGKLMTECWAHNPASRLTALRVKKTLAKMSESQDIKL
Excerpt: as §1, §2

[3] = tested on: BMP signal in MDA-231-D-BREFluc/Rluc cells; test: BMP signal inhibitory effect (AlphaScreen SureFire SMAD1 p-Ser463/465, BMP-6 stimulation); format: cell-based; conditions: BMP-6 stimulated MDA-231-D-BREFluc/Rluc cells, phospho-SMAD1 AlphaScreen; read-out: IC50
Method in brief: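 Read-out was phospho-SMAD1 (Ser463/465) by AlphaScreen SureFire after 30 min BMP-6 stimulation at 37° C. Before stimulation, MDA-231-D-BREFluc/Rluc cells were incubated with test compound at 37° C for 2 h.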

[4] = target: human ALK3 (Homo sapiens (Human), UniProt P36894); test: ALK3 enzyme inhibitory effect (33P-ATP kinase assay, Reaction Biology); format: biochemical; conditions: for inhibition at 0.3 µM: ALK3, test compound 300 nM, read-out: Inhibition rate at 300 nM; for inhibition at 0.37 µM: ALK3, test compound 370 nM (asterisk footnote), read-out: inhibition rate at 370 nM
Sequence of human ALK3 (P36894 24-532): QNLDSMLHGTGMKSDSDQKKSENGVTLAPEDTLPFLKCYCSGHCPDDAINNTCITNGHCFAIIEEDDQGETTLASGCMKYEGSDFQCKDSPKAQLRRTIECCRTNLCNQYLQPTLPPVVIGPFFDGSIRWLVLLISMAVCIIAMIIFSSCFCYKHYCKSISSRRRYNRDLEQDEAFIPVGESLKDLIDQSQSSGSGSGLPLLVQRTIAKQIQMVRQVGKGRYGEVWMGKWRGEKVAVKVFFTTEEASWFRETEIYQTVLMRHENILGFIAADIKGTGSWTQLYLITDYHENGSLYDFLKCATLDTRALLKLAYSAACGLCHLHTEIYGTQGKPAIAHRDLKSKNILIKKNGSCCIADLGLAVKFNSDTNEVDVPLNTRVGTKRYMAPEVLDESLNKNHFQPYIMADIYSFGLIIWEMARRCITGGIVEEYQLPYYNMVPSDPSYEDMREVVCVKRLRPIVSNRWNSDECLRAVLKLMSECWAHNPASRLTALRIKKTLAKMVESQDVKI
Excerpt: as §1, §2

Sequence of human ALK2 (Q04771 21-509): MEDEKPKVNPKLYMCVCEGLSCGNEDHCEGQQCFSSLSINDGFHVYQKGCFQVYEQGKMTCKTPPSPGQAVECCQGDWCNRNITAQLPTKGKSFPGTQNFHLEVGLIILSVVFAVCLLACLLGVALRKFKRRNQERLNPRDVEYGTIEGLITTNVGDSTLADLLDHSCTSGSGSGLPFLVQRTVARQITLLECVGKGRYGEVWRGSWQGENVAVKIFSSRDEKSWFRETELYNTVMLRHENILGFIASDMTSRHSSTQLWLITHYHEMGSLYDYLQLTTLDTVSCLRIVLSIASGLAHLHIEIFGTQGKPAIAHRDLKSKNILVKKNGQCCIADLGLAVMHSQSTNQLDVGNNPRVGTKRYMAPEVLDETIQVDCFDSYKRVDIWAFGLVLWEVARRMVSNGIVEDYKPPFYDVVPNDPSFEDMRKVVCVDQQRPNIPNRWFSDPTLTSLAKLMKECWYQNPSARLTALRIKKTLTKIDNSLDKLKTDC

SMILES | IC50 [1] | inhibition at 0.3 µM [2] | IC50 [3] | inhibition at 0.3 µM [4] | inhibition at 0.37 µM [2] | inhibition at 0.37 µM [4]
CCn1cc(-c2ccnc(Nc3ccc(N4CCN(Cc5ccccc5)CC4)cc3)n2)c(-c2cccnc2)n1 [Example 19, N-(4-(4-benzylpiperazin-1-yl)phenyl)-4-(1-ethyl-3-(pyridin-3-yl)-1H-pyrazol-4-yl)pyrimidin-2-amine] | 25 nM | 88.4% | 23.3 nM | 59.3% | – | –
CCn1cc(-c2ccnc(Nc3ccc(N4CCN(CC(C)(C)O)CC4)cc3)n2)c(-c2cccnc2)n1 [Example 104, 1-(4-(4-((4-(1-ethyl-3-(pyridin-3-yl)-1H-pyrazol-4-yl)pyrimidin-2-yl)amino)phenyl)piperazin-1-yl)-2-methylpropan-2-ol] | 13.2 nM | 93.5% | 16.4 nM | 65.8% | – | –
COCCn1cc(-c2ccnc(Nc3ccc(N4CCNCC4)cc3)n2)c(-c2cccnc2)n1 [Example 71, 4-(1-(2-methoxyethyl)-3-(pyridin-3-yl)-1H-pyrazol-4-yl)-N-(4-(piperazin-1-yl)phenyl)pyrimidin-2-amine] | 40 nM | 76% | 22.8 nM | 48% | – | –
CCn1cc(-c2ccnc(Nc3ccc(N4CCCCC4)cc3)n2)c(-c2cccnc2)n1 [Example 49, 4-(1-ethyl-3-(pyridin-3-yl)-1H-pyrazol-4-yl)-N-(4-(piperidin-1-yl)phenyl)pyrimidin-2-amine] | 67 nM | 91.6% | 28.1 nM | 52.2% | – | –
CCn1cc(-c2ccnc(Nc3ccc(N4CCC(C)(N)CC4)cc3)n2)c(-c2cccnc2)n1 [Example 176, N-(4-(4-amino-4-methylpiperidin-1-yl)phenyl)-4-(1-ethyl-3-(pyridin-3-yl)-1H-pyrazol-4-yl)pyrimidin-2-amine] | 66 nM | 88.5% | 7.3 nM | 62.4% | – | –
CCn1cc(-c2ccnc(Nc3ccc(N4CCN(CCOC)CC4)cc3)n2)c(-c2cccnc2)n1 [Example 17, 4-(1-ethyl-3-(pyridin-3-yl)-1H-pyrazol-4-yl)-N-(4-(4-(2-methoxyethyl)piperazin-1-yl)phenyl)pyrimidin-2-amine] | 54 nM | 88% | 22.6 nM | 50.4% | – | –
CCn1cc(-c2ccnc(Nc3ccc(N4CCNCC4)nc3)n2)c(-c2cccnc2)n1 [Example 155, 4-(1-Ethyl-3-(pyridin-3-yl)-1H-pyrazol-4-yl)-N-(6-(piperazin-1-yl)pyridin-3-yl)pyrimidin-2-amine] | 57 nM | – | 8.5 nM | – | 86.5% | 48.8%
CCn1cc(-c2ccnc(Nc3ccc4c(c3)CCNCC4)n2)c(-c2cccnc2)n1 [Example 171, N-(4-(1-Ethyl-3-(pyridin-3-yl)-1H-pyrazol-4-yl)pyrimidin-2-yl)-2,3,4,5-tetrahydro-1H-benzo [d] azepin-7-amine] | 17 nM | 98.3% | 1.3 nM | 67.1% | – | –
c1cncc(-c2nn(C3COC3)cc2-c2ccnc(Nc3ccc(N4CCN(C5COC5)CC4)cc3)n2)c1 [Example 101, 4-(1-(oxetan-3-yl)-3-(pyridin-3-yl)-1H-pyrazol-4-yl)-N-(4-(4-(oxetan-3-yl)piperazin-1-yl)phenyl)pyrimidin-2-amine] | 18 nM | – | 70.8 nM | – | 70.4% | 48.8%
CCn1cc(-c2ccnc(Nc3ccc4c(c3)CCN(C(C)=O)C4)n2)c(-c2cccnc2)n1 [Example 75, 1-(6-((4-(1-Ethyl-3-(pyridin-3-yl)-1H-pyrazol-4-yl)pyrimidin-2-yl)amino)-3,4-dihydroisoquinolin-2(1H)-yl)ethan-1-one] | 28 nM | 92.9% | 14.8 nM | 67.5% | – | –
c1ccc(CCn2cc(-c3ccnc(Nc4ccc(N5CCNCC5)cc4)n3)c(-c3cccnc3)n2)cc1 [Example 142, 4-(1-Phenethyl-3-(pyridin-3-yl)-1H-pyrazol-4-yl)-N-(4-(piperazin-1-yl)phenyl)pyrimidin-2-amine] | 87.2 nM | 92.6% | 7.3 nM | 62.7% | – | –
CCn1cc(-c2ccnc(Nc3ccc(N4CCN(C5COC5)CC4)cc3)n2)c(-c2cccnc2)n1 [Example 15, 4-(1-ethyl-3-(pyridin-3-yl)-1H-pyrazol-4-yl)-N-(4-(4-(oxetan-3-yl)piperazin-1-yl)phenyl)pyrimidin-2-amine] | 45 nM | 90.2% | 30.1 nM | 51.4% | – | –
CCn1cc(-c2ccnc(Nc3ccc4c(c3)CCN(C(=O)CO)C4)n2)c(-c2cccnc2)n1 [Example 175, 1-(6-((4-(1-Ethyl-3-(pyridin-3-yl)-1H-pyrazol-4-yl)pyrimidin-2-yl)amino)-3,4-dihydroisoquinolin-2(1H)-yl)-2-hydroxyethan-1-one] | 46.8 nM | 93.6% | 10.8 nM | 74.6% | – | –
CCn1cc(-c2ccnc(Nc3ccc(C(=O)N4CCN(c5ccc(F)cc5)CC4)cc3)n2)c(-c2cccnc2)n1 [Example 3, (4-((4-(1-ethyl-3-(pyridin-3-yl)-1H-pyrazol-4-yl)pyrimidin-2-yl)amino)phenyl)(4-(4-fluorophenyl)piperazin-1-yl)methanone] | 24.2 nM | 79.6% | 26.7 nM | 52% | – | –
